The source of these data is patent US20090306053A1, “Highly selective rho-kinase inhibitor” (priority 2005, published 2009).

Common to all, as to assay type: biochemical
Experiment [1] concerns the target T1, Recombinant human Src (Homo sapiens, UniProt P12931).
T1 construct: purchased Upstate
The experiment in a line: Src kinase assay (Kinase-Glo ATP consumption). As to conditions: 0.5 μM ATP; read-out: Kinase Inhibiting Activity (IC50) Src. How it is done: Recombinant human Src (Upstate) was used to evaluate its activity to phosphorylate a substrate peptide (KVEKIGEGTYGVVYK, Upstate).
(§1) In a system of the total volume of 50 μL, the reaction of the above-mentioned enzyme (6 Units) was carried out at room temperature for 80 minutes in the presence of 40 mM of MOPS-NaOH (pH 7.5), 10 mM of magnesium chloride, 25 mM of manganese chloride, 300 μM of the above peptide, and 0.5 μM of ATP. After the kinase reaction, the luminescence intensity corresponding to the amount of ATP in the reaction system was measured using a luciferase reagent (Kinase-Glo Luminescent Kinase Assay kit, Promega) with a chemiluminescence measurement apparatus (MicroLumat, Berthold Technologies). The amount of ATP consumed by the phosphorylation reaction was calculated by comparison with the luminescence intensity in the system when the kinase reaction was not carried out.
(§2) With this system, the kinase reaction was carried out in the presence of a compound at various concentrations, and the IC50 value of the compound was determined based on the resulting compound concentration-response curve for ATP consumption.
For orientation: Kinase-Glo reads ATP consumption through a luciferase reaction.

In experiment [2] the target is T2, Recombinant human Ab1 (Homo sapiens, UniProt P00519).
T2 construct: from 27th to 1149th amino acids; purchased Upstate
Description: Abl kinase assay (Kinase-Glo ATP consumption). As to conditions: 1 μM ATP; read-out: Kinase Inhibiting Activity (IC50) Abl. How it is done:
Recombinant human Ab1 (from 27th to 1149th amino acids, Upstate) was used to evaluate its activity to phosphorylate a substrate peptide (EAIYAAPFAKKK, Upstate).
as §1, with “(20 ng)” for “(6 Units)”, “50” for “40”, “Tris-HCl” for “MOPS-NaOH”, “50” for “25 mM of manganese chloride, 300”, “1” for “0.5”
as §2

Experiment [3] addresses Purified rat PKC. Description: PKC kinase assay (Kinase-Glo ATP consumption). The settings on record: 1 μM ATP; read-out: Kinase Inhibiting Activity (IC50) PKC. Here is the method:
Purified rat PKC (containing PKCα, β, and γ and small amounts of δ and ξ isoforms, Promega) was used to evaluate its activity to phosphorylate a substrate peptide (AAKIQASFRGHMARKK, Promega).
In a system of the total volume of 50 μL, the reaction of the above-mentioned enzyme (5 ng) was carried out at room temperature for 80 minutes in the presence of 20 mM of Tris-HCl (pH 7.5), 20 mM of magnesium chloride, 0.4 mM of calcium chloride, 0.1 mg/mL of BSA, 0.25 mM of EGTA, 0.5 mg/mL of phosphatidylserine (Sigma), 0.05 mg/mL of 1,2-dioctanoyl-sn-glycerol (Sigma), 10 μM of the above peptide, and 1 μM of ATP. After the kinase reaction, the luminescence intensity corresponding to the amount of ATP in the reaction system was measured using a luciferase reagent (Kinase-Glo Luminescent Kinase Assay kit, Promega) with a chemiluminescence measurement apparatus (MicroLumat, Berthold Technologies). The amount of ATP consumed by the phosphorylation reaction was calculated by comparison with the luminescence intensity in the system when the kinase reaction was not carried out.
as §2

Experiment [4] has as its target T3, Purified bovine PKGα (Bos taurus, UniProt P00516).
T3 construct: Purified bovine PKGα (Promega); purchased Promega
T3 sequence (P00516 1-671): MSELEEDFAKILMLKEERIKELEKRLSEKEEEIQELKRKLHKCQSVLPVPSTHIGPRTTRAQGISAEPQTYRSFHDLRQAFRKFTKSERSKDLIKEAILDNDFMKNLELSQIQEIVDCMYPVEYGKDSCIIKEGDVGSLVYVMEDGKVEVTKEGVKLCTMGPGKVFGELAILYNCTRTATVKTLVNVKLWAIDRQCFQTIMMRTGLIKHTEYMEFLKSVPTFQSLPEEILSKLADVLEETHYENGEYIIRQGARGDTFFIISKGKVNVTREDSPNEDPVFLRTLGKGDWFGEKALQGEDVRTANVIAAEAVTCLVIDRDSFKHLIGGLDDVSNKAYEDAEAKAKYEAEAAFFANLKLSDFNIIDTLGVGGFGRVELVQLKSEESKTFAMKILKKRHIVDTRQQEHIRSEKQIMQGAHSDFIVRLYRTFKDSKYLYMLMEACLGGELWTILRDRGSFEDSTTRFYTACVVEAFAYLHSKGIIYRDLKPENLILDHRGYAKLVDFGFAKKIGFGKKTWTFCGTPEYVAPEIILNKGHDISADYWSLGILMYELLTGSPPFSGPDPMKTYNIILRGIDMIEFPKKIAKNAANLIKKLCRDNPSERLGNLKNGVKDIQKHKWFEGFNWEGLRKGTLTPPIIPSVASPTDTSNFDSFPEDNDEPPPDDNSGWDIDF
Description: PKG kinase assay (Kinase-Glo ATP consumption). The settings on record: for IC50: 1 μM ATP, read-out: Kinase Inhibiting Activity (IC50) PKG; for Realative Inhibitory Activity PKG: relative ratio to ROCKII (=1.0), based on IC50 values. Here is the method:
Purified bovine PKGα (Promega) was used to evaluate its activity to phosphorylate a substrate peptide (RKISASEF, Promega).
as §1, with “(64 ng)” for “(6 Units)”, “Tris-HCl” for “MOPS-NaOH”, “20” for “10”, “10 μM” for “25 mM”, “cGMP (Sigma), 100” for “manganese chloride, 300”, “1” for “0.5”
as §2
(§3) The ROCKII-inhibiting activity of a compound to be tested was defined as 1.0, and the inhibitory activities of the compound against kinases (PKA, PKG, CaMKII, and AuroraA) other than ROCKII were calculated as relative ratios to the ROCKII-inhibiting activity, based on the IC50 values calculated using the above-described evaluation system.

The target of experiment [5] is ROCKII (Rho-kinase) (Homo sapiens, UniProt O75116). The experiment in a line: Rho-kinase (ROCKII) assay according to Patent Document 1. As to conditions: for Realative Inhibitory Activity ROCKII: ROCKII-inhibiting activity defined as 1.0 (reference); for IC50: read-out: Kinase Inhibiting Activity (IC50) ROCKII. Details: key to Realative Inhibitory Activity ROCKII: relative ratio; ROCKII-inhibiting activity defined as 1.0. Here is the method: An Rho-kinase assay was carried out according to the method described in Patent Document 1, and the concentration of a compound for inhibiting Rho-kinase activity by 50% (hereinafter referred to as “IC50 value”) was calculated.
as §3

Bounds are passed on as bounds.

Chain of ROCKII (Rho-kinase) (O75116 whole entry, species assumed): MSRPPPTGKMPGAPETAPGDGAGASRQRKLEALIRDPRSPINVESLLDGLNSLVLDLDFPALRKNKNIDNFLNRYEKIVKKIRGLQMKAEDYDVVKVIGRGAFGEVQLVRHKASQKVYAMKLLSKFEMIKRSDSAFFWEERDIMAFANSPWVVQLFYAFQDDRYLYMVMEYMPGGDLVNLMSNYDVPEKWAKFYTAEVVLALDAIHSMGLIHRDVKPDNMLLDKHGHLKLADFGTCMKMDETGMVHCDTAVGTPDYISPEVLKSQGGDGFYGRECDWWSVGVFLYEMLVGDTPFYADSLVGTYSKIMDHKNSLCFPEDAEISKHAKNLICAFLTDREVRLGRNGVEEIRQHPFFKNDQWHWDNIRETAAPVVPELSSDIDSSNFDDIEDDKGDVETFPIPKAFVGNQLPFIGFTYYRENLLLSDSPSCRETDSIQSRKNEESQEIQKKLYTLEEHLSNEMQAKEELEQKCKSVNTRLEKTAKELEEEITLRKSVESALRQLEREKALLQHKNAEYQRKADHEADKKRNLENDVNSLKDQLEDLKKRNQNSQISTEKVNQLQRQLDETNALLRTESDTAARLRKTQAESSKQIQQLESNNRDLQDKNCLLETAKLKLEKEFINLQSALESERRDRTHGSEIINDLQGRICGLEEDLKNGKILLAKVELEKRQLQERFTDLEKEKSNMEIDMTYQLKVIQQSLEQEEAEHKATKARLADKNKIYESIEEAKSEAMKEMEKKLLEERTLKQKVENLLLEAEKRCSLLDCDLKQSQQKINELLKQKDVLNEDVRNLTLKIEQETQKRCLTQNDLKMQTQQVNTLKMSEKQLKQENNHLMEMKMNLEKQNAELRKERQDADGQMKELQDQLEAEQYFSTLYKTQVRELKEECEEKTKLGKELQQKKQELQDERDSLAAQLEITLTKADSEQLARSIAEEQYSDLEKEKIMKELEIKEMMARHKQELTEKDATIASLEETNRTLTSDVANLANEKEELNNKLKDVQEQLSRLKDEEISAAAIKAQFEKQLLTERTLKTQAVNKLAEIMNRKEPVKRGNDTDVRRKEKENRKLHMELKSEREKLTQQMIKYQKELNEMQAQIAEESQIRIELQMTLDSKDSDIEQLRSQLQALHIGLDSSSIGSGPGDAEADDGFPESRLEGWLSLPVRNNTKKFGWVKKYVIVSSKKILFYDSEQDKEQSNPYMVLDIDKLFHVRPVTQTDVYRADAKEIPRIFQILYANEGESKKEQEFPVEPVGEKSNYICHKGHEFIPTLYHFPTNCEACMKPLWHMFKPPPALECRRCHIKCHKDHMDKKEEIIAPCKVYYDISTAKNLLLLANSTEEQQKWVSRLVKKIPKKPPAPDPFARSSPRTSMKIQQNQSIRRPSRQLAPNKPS
T2 sequence (P00519 27-1149 isoform P00519-2): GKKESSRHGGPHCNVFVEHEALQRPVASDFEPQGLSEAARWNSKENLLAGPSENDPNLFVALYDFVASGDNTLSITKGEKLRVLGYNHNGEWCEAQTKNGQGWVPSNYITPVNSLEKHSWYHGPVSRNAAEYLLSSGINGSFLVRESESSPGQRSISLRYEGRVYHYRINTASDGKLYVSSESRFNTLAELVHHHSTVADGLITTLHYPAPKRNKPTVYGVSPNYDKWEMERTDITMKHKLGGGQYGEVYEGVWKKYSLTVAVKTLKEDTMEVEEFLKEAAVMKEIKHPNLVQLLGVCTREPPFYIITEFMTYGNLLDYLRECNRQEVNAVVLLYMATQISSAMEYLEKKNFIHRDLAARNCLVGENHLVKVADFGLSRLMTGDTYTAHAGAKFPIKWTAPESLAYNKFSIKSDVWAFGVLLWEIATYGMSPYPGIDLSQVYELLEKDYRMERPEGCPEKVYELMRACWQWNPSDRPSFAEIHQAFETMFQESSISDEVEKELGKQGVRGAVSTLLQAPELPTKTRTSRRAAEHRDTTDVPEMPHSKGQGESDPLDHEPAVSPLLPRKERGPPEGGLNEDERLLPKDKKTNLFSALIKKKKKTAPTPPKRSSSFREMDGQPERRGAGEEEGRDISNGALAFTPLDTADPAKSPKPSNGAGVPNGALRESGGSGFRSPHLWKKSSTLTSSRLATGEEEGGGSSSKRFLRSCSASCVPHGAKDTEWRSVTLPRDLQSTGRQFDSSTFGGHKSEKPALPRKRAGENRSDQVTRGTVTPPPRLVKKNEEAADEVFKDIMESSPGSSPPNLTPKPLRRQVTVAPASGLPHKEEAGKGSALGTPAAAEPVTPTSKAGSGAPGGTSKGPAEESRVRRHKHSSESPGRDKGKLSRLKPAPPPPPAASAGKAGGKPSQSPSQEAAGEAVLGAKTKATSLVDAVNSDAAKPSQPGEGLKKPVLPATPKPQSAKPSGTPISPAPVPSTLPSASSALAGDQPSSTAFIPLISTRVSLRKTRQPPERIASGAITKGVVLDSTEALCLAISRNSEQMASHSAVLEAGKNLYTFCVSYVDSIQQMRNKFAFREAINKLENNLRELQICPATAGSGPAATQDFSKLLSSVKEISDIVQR

As a reminder, the IC50 is the concentration needed to halve the response being measured. Take “2-(S)-1-(4-fluoroisoquinoline-5-sulfonyl)-4-glycyl-2-methylhomopiperazine dihydrochloride [Example 1]”: the IC50 in experiment [1] is over 100 µM; in experiment [2], over 100 µM; in experiment [3] it was over 100 µM; in experiment [4], 63.5 µM; in experiment [5] it was 0.0321 µM. In addition, in experiment [4], the “Realative Inhibitory Activity PKG” value came to 2117. The “Realative Inhibitory Activity ROCKII” value in experiment [5] is on record as 1.
Regarding `CNCC(=O)N1CCCN(S(=O)(=O)c2cccc3cncc(F)c23)[C@@H](C)C1.Cl.Cl` [Example 2, 2-(S)-1-(4-fluoroisoquinoline-5-sulfonyl)-2-methyl-4-(N-methylglycyl)homopiperazine dihydrochloride], the IC50 in experiment [1] is over 100 µM; in experiment [2], over 100 µM; in experiment [3], over 100 µM; in experiment [4] it was 28 µM; in experiment [5], 0.029 µM. The “Realative Inhibitory Activity PKG” value in experiment [4] is 933. In experiment [5], the “Realative Inhibitory Activity ROCKII” value came to 1.
